# Measured values reported in US20220107328A1, “METHODS OF TREATING LIVER DISEASES” (Camp4 Therapeutics Corporation, priority 2018, published 2022).
# Values joined by “and” are separate entries in the source; they are usually repeats but may differ in a detail not shown here. Equal values may be shown once.
# How the values were obtained:
# PNPLA3 mRNA [1] = assay: qRT-PCR of PNPLA3 mRNA in compound-treated primary human hepatocytes; details: for Relative PINPLA3 mRNA: hepatocytes; for Relative PNPLA3 mRNA levels: human hepatocytes; for PNPLA3 mRNA, TGFβ and BMP pathway inhibitors (in words) / Relative PNPLA3 mRNA expression: primary human hepatocytes; for PNPLA3 expression (in words): validation in human hepatocytes from a second donor; for Relative PNLPA3 mRNA expression in HU4282 cells: Lonza HU4282 hepatocytes; for Relative PNPLA3 mRNA expression in Yecuris RMG cells: Yecuris RMG hepatocytes
# Protocol: Cryopreserved hepatocytes were cultured in plating media for 16 hours, transferred to maintenance media for 4 hours. Cultured on serum-free media for 2 hours, then a compound was added. The hepatocytes were maintained on the serum-free media for 16 hours prior to gene expression analysis.
# Human hepatocytes cultured as described above were plated in 24-well format, adding 375,000 cells per well in a volume of 500 μl plating medium. Four hours before treatment, cells were washed with PBS and the medium was changed to either: fresh maintenance medium (complete) or modified maintenance medium.
# Compound stocks were prepared at 1000× final concentration and added in a 2-step dilution to the medium to reduce risk of a compound precipitating out of solution when added to the cells, and to ensure reasonable pipetting volumes. One at a time, each compound was first diluted 10-fold in warm (about 37° C.) modified maintenance medium (initial dilution=ID), mixed by vortexing, and the ID was diluted 100-fold into the cell culture (e.g. 5.1 μl into 1 well of a 24-well plate containing 0.5 mL medium). The plate was mixed by carefully swirling and after all wells were treated and returned to the incubator overnight. If desired, separate plates/wells were treated with vehicle-only controls and/or positive controls. If using multi-well plates, controls were included on each plate. After about 18 hours, cells were harvested for further analysis, e.g., ChIP-seq, RNA-seq, ATAC-seq, etc.
# Analysis of the fold changes in expression as measured by qRT-PCR were performed using the technique below. The control was DMSO, and the treatment was the selected compound (CPD). The internal control was GAPDH or B-Actin (or otherwise indicated), and the gene of interest is the target. First, the averages of the 4 conditions were calculated for normalization: DMSO:GAPDH, DMSO:Target, CPD: GAPDH, and CPD:Target. Next, the ΔCT of both control and treatment were calculated to normalize to internal control (GAPDH) using (DMSO:Target)−(DMSO:GAPDH)=ΔCT control and (CPD:Target)−(CPD: GAPDH)=ΔCT experimental. Then, the ΔΔCT was calculated by ΔCT experimental−ΔCT control. The Expression Fold Change (or Relative Quantification, abbreviated as RQ) was calculated by 2−(ΔΔCT) (2-fold expression change was shown by RNA-Seq results provided herein).
# The aim of the validation studies was to test the identified compounds from key pathways, and expand the compound franchise to identify other potential hits. Candidate compounds were subjected to validation with qRT-PCR in human hepatocytes. qRT-PCR was performed on samples of primary human hepatocytes from a second donor treated with the candidate compounds. Compounds were tested at concentrations ranging from 0.01 μM to 50 μM, with the majority tested at 10 μM.
# Primary human hepatocytes and stellate cells were also incubated with inhibitors of the TGFβ pathway and PNPLA3 gene expression changes assessed via qRT-PCR as previously described. In addition, primary hepatocytes and stellate cells were treated with TGFβ-ligand alone or with selected the small molecule inhibitors for 18 hours and subsequently harvested. for gene expression assays.
# The other set was harvest for mRNA processing as previously described.
# PNPLA3 mRNA [2] = assay: qRT-PCR of PNPLA3 mRNA in human primary hepatic stellate cells; type: cell-based; details: for Relative PNPLA3 mRNA expression: stellate cells, Table 37; for Relative PNPLA3 nRNA expression in Stellate cells: 16 hours; for Relative PNPLA3 mRNA levels RQ: GSK3 inhibitors in hepatic stellate cells; for PNPLA3 mRNA levels (in words): hepatic stellate cells, serial dilutions, 18 hours
# COL1A1 mRNA = assay: qRT-PCR of COL1A1 mRNA in human primary hepatic stellate cells; type: cell-based; details: for Relative COL1A1 mRNA levels RQ: GSK3 inhibitors in hepatic stellate cells; for COL1A1 expression (in words): hepatic stellate cells, serial dilutions, 18 hours
# [3] = Syk pathway inhibitors, 10 μM, normalized to B2M, mean of three replicates ± standard deviation
# [4] = JAK inhibitors, 10 μM, qRT-PCR, mean of three replicates ± standard deviation
# [5] = 3.3 uM, 16 hours, relative to GUSB
# [6] = 10 uM, 16 hours, relative to GUSB
molecule,measurement,setting,value
"C/C=C1\NC(=O)[C@H]2CSSCC/C=C/[C@H](CC(=O)N[C@H](C(C)C)C(=O)N2)OC(=O)[C@H](C(C)C)NC1=O [Romidepsin (FK228, Depsipeptide)]",Relative PINPLA3 mRNA,PNPLA3 mRNA [1]; 10 uM,0.3
COC(=O)C1=C(C#N)NC(C)=C(C(=O)OC(C)C)C1c1cccc([N+](=O)[O-])c1 (centres unmarked) [nilvadipine],Relative PNPLA3 mRNA levels,PNPLA3 mRNA [1]; [3],0.61 ± 0.08
COc1cc(-c2cc(-c3cccc(O)c3)cnc2N)cc(OC)c1OC [K02288],"PNPLA3 mRNA, TGFβ and BMP pathway inhibitors (in words)",PNPLA3 mRNA [1],did not decrease PNPLA3 mRNA in primary human hepatocytes
same,Relative PNPLA3 mRNA expression,"PNPLA3 mRNA [1]; 3.3 uM, Table 35",1.259 ± 0.3268
same,Relative PNPLA3 mRNA expression,"PNPLA3 mRNA [1]; 10 uM, Table 35",2.687 ± 0.4146
Cl.NNc1nncc2ccccc12 [Hydralazine HCI],Relative PINPLA3 mRNA,PNPLA3 mRNA [1]; 10 uM,0.25
CC[C@@H]1CN(C(=O)NCC(F)(F)F)C[C@@H]1c1cnc2cnc3[nH]ccc3n12 [Upadacitinib],Relative PNPLA3 mRNA levels,PNPLA3 mRNA [1]; [4],0.93 ± 0.15
Cc1cc(Nc2nc(N[C@@H](C)c3ncc(F)cn3)ncc2Cl)[nH]n1 [AZD1480],Relative PNPLA3 mRNA levels,PNPLA3 mRNA [1]; [4],0.69 ± 0.10
same,PNPLA3 expression (in words),PNPLA3 mRNA [1]; qRT-PCR,efficient downregulation of PNPLA3
c1ccc2c(-c3cnn4cc(-c5ccc(N6CCNCC6)cc5)cnc34)ccnc2c1 [LDN193189],Relative PNPLA3 mRNA expression,PNPLA3 mRNA [2]; 0.01 uM,0.95 ± 0.09
same,Relative PNPLA3 mRNA expression,PNPLA3 mRNA [2]; 0.1 uM,0.83 ± 0.12
same,Relative PNPLA3 mRNA expression,PNPLA3 mRNA [2]; 1 uM,0.76 ± 0.07
same,Relative PNPLA3 mRNA expression,PNPLA3 mRNA [2]; 10 uM,9.25
C=CC(=O)N1C[C@H](COc2nc(Nc3cnn(C)c3)nc3[nH]cc(Cl)c23)[C@@H](OC)C1 [PF-06459988],Relative PINPLA3 mRNA,PNPLA3 mRNA [1]; 1 uM,0.965
same,Relative PINPLA3 mRNA,PNPLA3 mRNA [1]; 10 uM,0.398
CCS(=O)(=O)N1CCN(c2ccc(Nc3ncc(C(N)=O)c(NC4CC4)n3)cc2)CC1 [Cerdulatinib],Relative PNPLA3 mRNA levels,PNPLA3 mRNA [1]; [4],0.82 ± 0.00
N#CCNC(=O)c1ccc(-c2ccnc(Nc3ccc(N4CCOCC4=O)cc3)n2)cc1 [M21],PNPLA3 mRNA expression (in words),"PNPLA3 mRNA [2]; stellate cells ST1 and ST8, 16 hours, relative to GAPDH","reduced PNPLA3 mRNA expression, with the most significant decrease after treatment with 3.3 μM M21"
same,Relative PNPLA3 nRNA expression in Stellate cells,"PNPLA3 mRNA [2]; stellate cells donor ST1, 3.3 uM, relative to GAPDH",0.26 ± 0.11
same,Relative PNPLA3 nRNA expression in Stellate cells,"PNPLA3 mRNA [2]; stellate cells donor ST1, 10 uM, relative to GAPDH",0.54 ± 0.10
same,Relative PNPLA3 nRNA expression in Stellate cells,"PNPLA3 mRNA [2]; stellate cells donor ST8, 3.3 uM, relative to GAPDH",0.31 ± 0.01
same,Relative PNPLA3 nRNA expression in Stellate cells,"PNPLA3 mRNA [2]; stellate cells donor ST8, 10 uM, relative to GAPDH",0.49 ± 0.05
same,Relative PNLPA3 mRNA expression in HU4282 cells,PNPLA3 mRNA [1]; [5],0.213 ± 0.028
same,Relative PNLPA3 mRNA expression in HU4282 cells,PNPLA3 mRNA [1]; [6],0.138 ± 0.015
same,PNPLA3 mRNA expression (in words),"PNPLA3 mRNA [1]; Yecuris RMG and Lonza HU4282 hepatocytes, 16 hours, relative to GUSB",reduced PNPLA3 mRNA expression in a dose dependent manner
same,Relative PNPLA3 mRNA expression in Yecuris RMG cells,PNPLA3 mRNA [1]; [5],0.910 ± 0.068
same,Relative PNPLA3 mRNA expression in Yecuris RMG cells,PNPLA3 mRNA [1]; [6],0.165 ± 0.018
O=C1Nc2cc(Br)ccc2/C1=C1/Nc2ccccc2/C1=N\O [BIO],Relative COL1A1 mRNA levels RQ,COL1A1 mRNA; 1 μM,0.74
same,Relative COL1A1 mRNA levels RQ,COL1A1 mRNA; 10 μM,0.59
same,COL1A1 expression (in words),COL1A1 mRNA,modestly decreased both PNPLA3 and COL1A1 in a dose dependent manner
same,Relative PNPLA3 mRNA levels RQ,PNPLA3 mRNA [2]; 1 μM,1.09
same,Relative PNPLA3 mRNA levels RQ,PNPLA3 mRNA [2]; 10 μM,0.54
same,PNPLA3 mRNA levels (in words),PNPLA3 mRNA [2],modestly decreased both PNPLA3 and COL1A1 in a dose dependent manner
CN1CCN(S(=O)(=O)c2ccc(-c3cnc(N)c(C(=O)Nc4cccnc4)n3)cc2)CC1 [AZD2858],Relative COL1A1 mRNA levels RQ,COL1A1 mRNA; 1 μM,0.83
same,Relative COL1A1 mRNA levels RQ,COL1A1 mRNA; 10 μM,0.72
same,COL1A1 expression (in words),COL1A1 mRNA,modestly decreased both PNPLA3 and COL1A1 in a dose dependent manner
same,Relative PNPLA3 mRNA levels RQ,PNPLA3 mRNA [2]; 1 μM,0.48
same,Relative PNPLA3 mRNA levels RQ,PNPLA3 mRNA [2]; 10 μM,0.72
same,PNPLA3 mRNA levels (in words),PNPLA3 mRNA [2],modestly decreased both PNPLA3 and COL1A1 in a dose dependent manner
COc1cc2ncnc(Nc3ccc(O)cc3)c2cc1OC [JANEX-1],Relative PNPLA3 mRNA levels,PNPLA3 mRNA [1]; [4],0.78 ± 0.11
N#CC[C@H](C1CCCC1)n1cc(-c2ncnc3[nH]ccc23)cn1 [Ruxolitinib],Relative PNPLA3 mRNA levels,PNPLA3 mRNA [1]; [4],0.89 ± 0.17
"Nc1cc(C(F)(F)F)c(-c2cc(N3CCOCC3)nc(N3CCOCC3)n2)cn1 [Buparlisib (BKM120, NVP-BKM120)]",Relative PINPLA3 mRNA,PNPLA3 mRNA [1]; 0.1 uM,1.049
same,Relative PINPLA3 mRNA,PNPLA3 mRNA [1]; 0.3 uM,0.729
same,Relative PINPLA3 mRNA,PNPLA3 mRNA [1]; 1 uM,0.659
same,Relative PINPLA3 mRNA,PNPLA3 mRNA [1]; 3 uM,0.515
TGFB1,Relative PNPLA3 mRNA expression,PNPLA3 mRNA [2]; 0.001 ug/ML,0.93 ± 0.11 and 1.50 ± 0.17
same,Relative PNPLA3 mRNA expression,PNPLA3 mRNA [2]; 0.01 ug/ML,2.35 ± 0.39 and 1.40 ± 0.10
O=C(Nc1nc2cccc(-c3ccc(CN4CCS(=O)(=O)CC4)cc3)n2n1)C1CC1 [Filgotinib],Relative PNPLA3 mRNA levels,PNPLA3 mRNA [1]; [4],1.07 ± 0.14
same,Relative PINPLA3 mRNA,PNPLA3 mRNA [1]; 1 uM,0.781
same,Relative PINPLA3 mRNA,PNPLA3 mRNA [1]; 10 uM,0.365
O=C(NCCCNc1nc(Nc2cccc(NC(=O)N3CCCC3)c2)ncc1I)c1cccs1 [BX795],Relative PNPLA3 mRNA levels,"PNPLA3 mRNA [1]; TBK1 inhibitor, concentration not given",0.51±0.06
c1cn2cc(-c3ccc4cn[nH]c4c3)nc(Nc3ccc(N4CCOCC4)cc3)c2n1 [entospletinib],Relative PNPLA3 mRNA levels,PNPLA3 mRNA [1]; [3],0.67 ± 0.05
Cc1cc(Nc2cc(CN3CCOCC3)c3nc(C)c(Cc4ccc(Cl)cc4F)n3n2)n[nH]1 [Gandotinib],Relative PNPLA3 mRNA levels,PNPLA3 mRNA [1]; [4],0.76 ± 0.13
NCCC(O)(P(=O)(O)O)P(=O)(O)O [Pamidronate],Relative PINPLA3 mRNA,PNPLA3 mRNA [1]; 10 uM,0.2
Cc1cccc(-c2[nH]c(CNc3ccccc3F)nc2-c2ccc3ncnn3c2)n1 [TEW-7197],Relative PNPLA3 mRNA expression,"PNPLA3 mRNA [1]; 0.04 uM, Table 34",1.219 ± 0.186
same,Relative PNPLA3 mRNA expression,"PNPLA3 mRNA [1]; 0.12 uM, Table 34",0.822 ± 0.152
same,Relative PNPLA3 mRNA expression,"PNPLA3 mRNA [1]; 0.37 uM, Table 34",0.613 ± 0.035
same,Relative PNPLA3 mRNA expression,"PNPLA3 mRNA [1]; 3.3 uM, Table 34",0.560 ± 0.134
CN1C/C=C/CCOc2cccc(c2)-c2ccnc(n2)Nc2cccc(c2)C1 [SB1317],Relative PINPLA3 mRNA,PNPLA3 mRNA [1]; 1 uM,0.400
same,Relative PINPLA3 mRNA,PNPLA3 mRNA [1]; 10 uM,0.413
CNS(=O)(=O)C[C@H]1CC[C@H](N(C)c2ncnc3[nH]ccc23)CC1 [Oclacitinib],Relative PNPLA3 mRNA levels,PNPLA3 mRNA [1]; [4],0.56 ± 0.03
same,PNPLA3 expression (in words),PNPLA3 mRNA [1]; qRT-PCR,efficient downregulation of PNPLA3
"c1cc(-c2cnn3cc(-c4ccc(N5CCNCC5)cc4)cnc23)c2cccnc2c1 [LDN212854, LDN-212854]",Relative PNPLA3 mRNA expression,PNPLA3 mRNA [2]; 0.01 uM,0.92 ± 0.22
same,Relative PNPLA3 mRNA expression,PNPLA3 mRNA [2]; 0.1 uM,1.02 ± 0.16
same,Relative PNPLA3 mRNA expression,PNPLA3 mRNA [2]; 1 uM,0.67 ± 0.12
same,Relative PNPLA3 mRNA expression,PNPLA3 mRNA [2]; 10 uM,7.43 ± 3.91
same,"PNPLA3 mRNA, TGFβ and BMP pathway inhibitors (in words)",PNPLA3 mRNA [1],did not decrease PNPLA3 mRNA in primary human hepatocytes
same,Relative PNPLA3 mRNA expression,"PNPLA3 mRNA [1]; 3.3 uM, Table 35",1.095 ± 0.1332
same,Relative PNPLA3 mRNA expression,"PNPLA3 mRNA [1]; 10 uM, Table 35",0.9339 ± 0.04093
CC[C@@H]1C(=O)N(C)c2cnc(Nc3ccc(C(=O)NC4CCN(C)CC4)cc3OC)nc2N1C1CCCC1 [BI 2536],Relative PINPLA3 mRNA,PNPLA3 mRNA [1]; 10 uM,0.38
CC1(C)CN(C(=O)c2ccc(-c3cccc4nc(NC(=O)C5CC5)nn34)cc2)C1 [Solcitinib],Relative PNPLA3 mRNA levels,PNPLA3 mRNA [1]; [4],1.10 ± 0.01
"Cc1cnc(Nc2ccc(OCCN3CCCC3)cc2)nc1Nc1cccc(S(=O)(=O)NC(C)(C)C)c1 [Fedratinib (SAR302503, TG101348)]",Relative PINPLA3 mRNA,PNPLA3 mRNA [1]; 10 uM,0.25
